Data reported in the NIST ThermoML archive (doi:10.1016/j.fluid.2009.09.005).

Columns and labels:
[1] = Capillary rise
[2] = wn = mass fraction of the nth substance listed; conditions: Capillary rise

CC(F)F [1,1-difluoroethane]
[1]
Conditions	surface tension liquid-gas [mN/m]
298.18 K	9.747
303.23 K	9.062
308.19 K	8.505
313.13 K	7.731

CC(C)C [2-methylpropane]
[1]
Conditions	surface tension liquid-gas [mN/m]
313.17 K	8.28
318.13 K	7.704
323.16 K	7.182
328.12 K	6.691
328.13 K	6.669

FC(F)C(F)(F)F [pentafluoroethane] + CC(F)F
[2]
Conditions	surface tension liquid-gas [mN/m]
243.08 K, w1 = 0.2019	16.5
243.16 K, w1 = 0.097	17
243.22 K, w1 = 0.2996	15.6
248.09 K, w1 = 0.2019	15.8
248.12 K, w1 = 0.2996	15
248.13 K, w1 = 0.097	16.2
253.12 K, w1 = 0.2019	15.1
253.13 K, w1 = 0.2996	14.3
253.55 K, w1 = 0.097	15.3
258.11 K, w1 = 0.097	14.6
258.16 K, w1 = 0.2019	14.4
258.16 K, w1 = 0.2996	13.7
263.06 K, w1 = 0.097	13.9
263.17 K, w1 = 0.2996	13
263.19 K, w1 = 0.2019	13.5
268.12 K, w1 = 0.097	13.3
268.17 K, w1 = 0.2019	12.9
268.18 K, w1 = 0.2996	12.2
273.18 K, w1 = 0.097	12.5
273.18 K, w1 = 0.2996	11.4
273.19 K, w1 = 0.2019	12.2
278.17 K, w1 = 0.2996	10.6
278.18 K, w1 = 0.097	11.8
278.42 K, w1 = 0.2019	11.4
283.13 K, w1 = 0.097	11.2
283.15 K, w1 = 0.2019	10.6
283.17 K, w1 = 0.2996	10.1
288.16 K, w1 = 0.2019	9.9
288.17 K, w1 = 0.097	10.6
288.18 K, w1 = 0.2996	9.5
293.14 K, w1 = 0.2019	9.4
293.17 K, w1 = 0.097	9.8
293.18 K, w1 = 0.2996	8.7
298.08 K, w1 = 0.2019	8.8
298.1 K, w1 = 0.097	9.2
298.11 K, w1 = 0.2996	8
303.13 K, w1 = 0.2019	8
303.17 K, w1 = 0.097	8.5
303.18 K, w1 = 0.2996	7.4
308.1 K, w1 = 0.097	7.9
308.1 K, w1 = 0.2019	7.4
308.12 K, w1 = 0.2996	6.7
313.11 K, w1 = 0.2019	6.7
313.16 K, w1 = 0.097	7.2
313.19 K, w1 = 0.2996	6.1
318.11 K, w1 = 0.2019	6.1
318.12 K, w1 = 0.097	6.5
318.16 K, w1 = 0.2996	5.5
323.14 K, w1 = 0.2019	5.4
323.16 K, w1 = 0.097	5.8
323.17 K, w1 = 0.2996	5
328.1 K, w1 = 0.2019	4.8
328.11 K, w1 = 0.097	5.2
328.16 K, w1 = 0.2996	4.3
